Test results published in patent US8975417B2, “Pyrazolopyrrolidine derivatives and their use in the treatment of disease” (Novartis AG, priority 2013, dated 2015).
Where two headings read alike, the source gives them in different places.

What was measured:
K-562 cells = assay: Cell growth inhibition assay (CellTiter-Glo), K-562; type: cell-based, human
How it was run: (§1)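 CellTiter-Glo ATP luminescence after compound exposure at 37° C., 5% CO2; 3-fold serial dilutions from 10 μM, 0.1% DMSO vehicle. Readings background- and day 0-corrected, vehicle = 100%, medium = −100%. IC50 and total growth inhibition (TGI) from four-parameter fits.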

[1] = biological target: His-CREBBP (1081-1197) bromodomain (Homo sapiens (Human), UniProt Q92793); assay: AlphaScreen in-vitro binding assay for CREBBP; details: biochemical
How it was run: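 Ni-chelate acceptor and streptavidin donor beads (45 µg/mL each, in 50 mM HEPES pH 7.5, 150 mM NaCl, 0.02% BSA) were then added for 60 min at room temperature. IC50 came from 8-point non-linear regression.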

[2] = biological target: nuclear BRD4-NUT foci in HCC2494 NUT midline carcinoma cells (Homo sapiens (Human), UniProt O60885+Q86Y26); assay: Nut-foci formation assay; type: cell-based; details: 24 hours, read-out: HCS Brd4-NUT IC50
Procedure: HCC2494 NUT midline carcinoma cells (expressing BRD4-NUT-fusion) were obtained from the University of Texas Southwestern and cultured in RPMI-1640 medium containing 10% Foetal Calf Serum at 37° C. in a humidified 5% CO2 incubator.
Compound-mediated inhibition of BRD4 activity was monitored by quantification of the number and intensity of nuclear BRD4-NUT foci using automated immunofluorescence microscopy. Briefly, 5000 cells in 20 μL fresh medium were seeded into Poly-D-Lysine-precoated 384-well plates and incubated overnight at 37° C. and 5% CO2, followed by addition of 5 μl medium containing compound dilutions at 5-fold their final intended concentration. Dose-response effects were assessed by 3-fold serial dilutions of the test compound, starting at 10 μM. Following incubation of the cells for 24 hours at 37° C. and 5% CO2, the cells were fixed by incubation with 3.7% formaldehyde for 10 min, followed by immunofluorescence staining using rabbit anti-NUT (Cell Signaling Technologies, Cat#3625) as primary, and AlexaFluor488-labeled goat anti-rabbit (Invitrogen, Cat#A11008) as secondary antibody (latter complemented with 1 μg/mL Hoechst33342 as DNA dye). Assay plates were imaged using the appropriate filter sets on the Cellomics VTi automated fluorescence microscopy platform (ThermoFisher Scientific) and the population average of the number of NUT-foci per nucleus is quantified using the Cellomics Spot Detection BioApplication image analysis algorithm (ThermoFisher Scientific). The effect of a particular test compound concentration on NUT-foci number and intensity is expressed as percentage of the value obtained for cells treated with vehicle only (DMSO, 0.1% final concentration), which was set as 100. Compound concentrations leading to half-maximal (IC50) inhibition of the aforementioned readout parameters were determined using standard four parameter curve fitting.

MV-4-11 cells = assay: Cell growth inhibition assay (CellTiter-Glo), MV-4-11; type: cell-based; details: Homo sapiens, MV4-11, read-out: MV-4-11 TGI
How it was run: as §1

[3] = Homo sapiens, K562, read-out: K-562 TGI

Sequence of His-CREBBP (1081-1197) bromodomain (Q92793 1081-1197): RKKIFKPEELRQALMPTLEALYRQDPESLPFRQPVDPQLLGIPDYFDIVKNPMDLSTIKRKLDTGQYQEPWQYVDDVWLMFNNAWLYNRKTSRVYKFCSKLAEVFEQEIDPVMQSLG

| IC50 [1] [nM] | IC50 [2] [nM] | Compound | IC (total growth inhibition) (K-562 cells; read-out: K-562 TGI) [µM] | IC (total growth inhibition) (MV-4-11 cells) [µM] | IC (total growth inhibition) (K-562 cells; [3]) [µM] |
| --- | --- | --- | --- | --- | --- |
| 5700 | 117 | COc1ncc(-n2nc(C)c3c2C(=O)N(c2cc(C)c(=O)n(C)c2)C3c2ccc(Cl)cc2)c(OC)n1 (racemic) [Example 52, 4-(4-chlorophenyl)-1-(2,4-dimethoxypyrimidin-5-yl)-5-(1,5-dimethyl-6-oxo-1,6-dihydropyridin-3-yl)-3-methyl-4,5-dihydropyrrolo[3,4-c]pyrazol-6(1H)-one] | >10 | – | – |
| 6400 | 44.2 | Cc1nn(-c2ccnn2C)c2c1C(c1ccc(Cl)cc1)N(c1cc(C)c(=O)n(C)c1)C2=O (racemic) [Example 74, 4-(4-chlorophenyl)-5-(1,5-dimethyl-6-oxo-1,6-dihydropyridin-3-yl)-3-methyl-1-(1-methyl-1H-pyrazol-5-yl)-4,5-dihydropyrrolo[3,4-c]pyrazol-6(1H)-one] | >10 | – | – |
| 5200 | 202 | Cc1cc(N2C(=O)c3c(cnn3C3CC3)C2c2ccc(Cl)cc2)cn(C)c1=O (centres unmarked) [Example 34, 4-(4-chlorophenyl)-1-cyclopropyl-5-(1,5-dimethyl-6-oxo-1,6-dihydropyridin-3-yl)-4,5-dihydropyrrolo[3,4-c]pyrazol-6(1H)-one] | – | 0.14 | > 10 |
| 3900 | 164 | Cn1cc(N2C(=O)c3c(c(C(F)(F)F)nn3C3CC3)C2c2ccc(Cl)cc2)cc(Cl)c1=O (centres unmarked) [Example 44, 5-(5-chloro-1-methyl-6-oxo-1,6-dihydropyridin-3-yl)-4-(4-chlorophenyl)-1-cyclopropyl-3-(trifluoromethyl)-4,5-dihydropyrrolo[3,4-c]pyrazol-6(1H)-one] | – | 0.329 | > 10 |
| 1300 | 34.1 | Cc1nn(C2CC2)c2c1[C@@H](c1ccc(Cl)cc1)N(c1cc(C)c(=O)n(C)c1)C2=O [Example 49, (R)-4-(4-chlorophenyl)-1-cyclopropyl-5-(1,5-dimethyl-6-oxo-1,6-dihydropyridin-3-yl)-3-methyl-4,5-dihydropyrrolo[3,4-c]pyrazol-6(1H)-one] | – | 0.0394 | > 10 |
| 1400 | 76.4 | Cc1nn(C2CC2)c2c1[C@@H](c1ccc(Cl)cc1)N(c1cc(Cl)c(=O)n(C)c1)C2=O [Example 51, (R)-5-(5-chloro-1-methyl-6-oxo-1,6-dihydropyridin-3-yl)-4-(4-chlorophenyl)-1-cyclopropyl-3-methyl-4,5-dihydropyrrolo[3,4-c]pyrazol-6(1H)-one] | – | 0.0883 | > 10 |
| > 37000 | 490 | COc1ncc(-n2nc3c(c2C(C)C)C(c2ccc(Cl)cc2)N(c2ccc4onc(C)c4c2)C3=O)c(OC)n1 (centres unmarked) [Example 54, 4-(4-chlorophenyl)-2-(2,4-dimethoxypyrimidin-5-yl)-3-isopropyl-5-(3-methylbenzo-[d]isoxazol-5-yl)-4,5-dihydropyrrolo[3,4-c]pyrazol-6(2H)-one] | – | 0.661 | > 10 |
| 600 | 54.1 | COc1ncc(-n2nc3c(c2C)C(c2ccc(Cl)cc2)N(c2cc(Cl)c(=O)n(C)c2)C3=O)c(OC)n1 (centres unmarked) [Example 55, 5-(5-chloro-1-methyl-6-oxo-1,6-dihydropyridin-3-yl)-4-(4-chlorophenyl)-2-(2,4-dimethoxypyrimidin-5-yl)-3-methyl-4,5-dihydropyrrolo[3,4-c]pyrazol-6(2H)-one] | – | 0.123 | > 10 |
| 11000 | 11.4 | CCc1nn(C2CC2)c2c1C(c1ccc(Cl)cc1)N(c1cc(C)c3nnc(C)n3c1)C2=O (centres unmarked) [Example 70, 4-(4-chlorophenyl)-1-cyclopropyl-5-(3,8-dimethyl-[1,2,4]triazolo[4,3-a]pyridin-6-yl)-3-ethyl-4,5-dihydropyrrolo[3,4-c]pyrazol-6(1H)-one] | – | 0.0131 | > 10 |
| 8200 | 141 | COc1ncccc1-n1nc(C)c2c1C(=O)N(c1cc(Cl)c(=O)n(C)c1)C2c1ccc(Cl)cc1 (centres unmarked) [Example 72, 5-(5-chloro-1-methyl-6-oxo-1,6-dihydropyridin-3-yl)-4-(4-chlorophenyl)-1-(2-methoxypyridin-3-yl)-3-methyl-4,5-dihydropyrrolo[3,4-c]pyrazol-6(1H)-one] | – | 0.164 | > 10 |
| 2000 | > 10000 | Cc1cc(N2C(=O)c3nn(C)c(O)c3C2c2ccc(Cl)cc2)cn(C)c1=O (centres unmarked) [Example 73, 4-(4-chlorophenyl)-5-(1,5-dimethyl-6-oxo-1,6-dihydropyridin-3-yl)-3-hydroxy-2-methyl-4,5-dihydropyrrolo[3,4-c]pyrazol-6(2H)-one] | – | 4.4 | > 10 |
| 2900 | 106 | CCOc1c2c(nn1C)C(=O)N(c1cc(C)c(=O)n(C)c1)C2c1ccc(Cl)cc1 (centres unmarked) [Example 76, 4-(4-chlorophenyl)-5-(1,5-dimethyl-6-oxo-1,6-dihydropyridin-3-yl)-3-ethoxy-2-methyl-4,5-dihydropyrrolo[3,4-c]pyrazol-6(2H)-one] | – | 0.107 | > 10 |
| 1900 | 99.5 | COc1c2c(nn1C)C(=O)N(c1cc(C)c(=O)n(C)c1)C2c1ccc(Cl)cc1 (centres unmarked) [Example 77, 4-(4-chlorophenyl)-5-(1,5-dimethyl-6-oxo-1,6-dihydropyridin-3-yl)-3-methoxy-2-methyl-4,5-dihydropyrrolo[3,4-c]pyrazol-6(2H)-one] | – | 0.132 | > 10 |
| 3100 | 39.5 | CCc1nn(CCO)c2c1C(c1ccc(Cl)cc1)N(c1cc(C)c(=O)n(C)c1)C2=O (centres unmarked) [Example 78, 4-(4-chlorophenyl)-5-(1,5-dimethyl-6-oxo-1,6-dihydropyridin-3-yl)-3-ethyl-1-(2-hydroxyethyl)-4,5-dihydropyrrolo[3,4-c]pyrazol-6(1H)-one] | – | 0.0855 | > 10 |
| 11000 | 150 | CCc1nn(CCO)c2c1C(c1ccc(Cl)cc1)N(c1cc(C)c3onc(C)c3c1)C2=O (centres unmarked) [Example 79, 4-(4-chlorophenyl)-5-(3,7-dimethylbenzo[d]isoxazol-5-yl)-3-ethyl-1-(2-hydroxyethyl)-4,5-dihydropyrrolo[3,4-c]pyrazol-6(1H)-one] | – | 0.42 | > 10 |
| 5000 | 178 | CCc1c2c(nn1CCO)C(=O)N(c1cc(C)c3onc(C)c3c1)C2c1ccc(Cl)cc1 (centres unmarked) [Example 80, 4-(4-chlorophenyl)-5-(3,7-dimethylbenzo[d]isoxazol-5-yl)-3-ethyl-2-(2-hydroxyethyl)-4,5-dihydropyrrolo[3,4-c]pyrazol-6(2H)-one] | – | 0.472 | > 10 |
| 920 | 74.3 | Cc1ncccc1-n1nc2c(c1C)C(c1ccc(Cl)cc1)N(c1cc(C)c(=O)n(C)c1)C2=O (centres unmarked) [Example 81, 4-(4-chlorophenyl)-5-(1,5-dimethyl-6-oxo-1,6-dihydropyridin-3-yl)-3-methyl-2-(2-methylpyridin-3-yl)-4,5-dihydropyrrolo[3,4-c]pyrazol-6(2H)-one] | – | 0.13 | > 10 |
| 6500 | 29.4 | Cc1ncccc1-n1nc(C)c2c1C(=O)N(c1cc(C)c(=O)n(C)c1)C2c1ccc(Cl)cc1 (centres unmarked) [Example 82, 4-(4-chlorophenyl)-5-(1,5-dimethyl-6-oxo-1,6-dihydropyridin-3-yl)-3-methyl-1-(2-methylpyridin-3-yl)-4,5-dihydropyrrolo[3,4-c]pyrazol-6(1H)-one] | – | 0.139 | > 10 |

| Compound | IC50 [1] [nM] | IC50 [2] [nM] | IC (total growth inhibition) (K-562 cells; read-out: K-562 TGI) [µM] | IC (total growth inhibition) (MV-4-11 cells) [µM] | IC (total growth inhibition) (K-562 cells; [3]) [µM] |
| --- | --- | --- | --- | --- | --- |
| Cc1nn(-c2cncn2C)c2c1C(c1ccc(Cl)cc1)N(c1cc(C)c(=O)n(C)c1)C2=O (centres unmarked) [Example 83, 4-(4-chlorophenyl)-5-(1,5-dimethyl-6-oxo-1,6-dihydropyridin-3-yl)-3-methyl-1-(1-methyl-1H-imidazol-5-yl)-4,5-dihydropyrrolo[3,4-c]pyrazol-6(1H)-one] | 6100 | 96.8 | – | 0.145 | > 10 |
